The results in this text go back to article PMC7660103, “Discovery of Novel 3-Cyanopyridines as Survivin Modulators and Apoptosis Inducers” (Molecules, 2020).

One data set relates to MDA-MB-231 cells. As to the kind of experiment: Cell cycle analysis by flow cytometry. The conditions noted are these: MDA-MB-231, IC50 concentration, 24 h; for %Pre-G1: control 1.87; for %G2-M: control 4.38; for %S: control 35.21; for %G0-G1: control 60.41. It is filed as cell-based, human. The source says:
Survivin has been recognized to play dual roles in stimulating cell-cycle progression and in obstructing apoptosis. Additionally, survivin is known to be expressed mainly in the G2/M phase of the cell cycle. Therefore, it was significant to examine the ability of our promising compounds 5c and 5e to induce cell cycle arrest. […] As shown in Figure 2 and Table 3, both 5c and 5e caused an increase in the number of cells in the G2/M phase by 4.92 and 5.74 folds, respectively, compared to the control cells. At the same time, a decrease in the DNA content in the G0/G1 phase, and a slight decrease in the S phase cells were observed. […] Supplementary Material Figures S37–S39 contain the cell cycle analysis for control and compounds 5c and 5e.
After that, cells were collected by trypsin and washed in saline buffered with phosphate. Then, they were fixed using ice-cold alcohol. Afterwards, cells were stained by a Cycle TESTTM PLUS DNA Reagent Kit (BD Biosciences, San Jose, CA, USA) according to the manufacturer’s directions. The distribution of the cells in the cell cycle was calculated using a FACS Calibur flow cytometer (BD Biosciences, San Jose, CA, USA).

The next data set concerns C-IAP1. As to the kind of experiment: Western blotting of C-IAP1 in MDA-MB-231 cells. It is filed as cell-based, human. To be noted: for C-IAP1 protein level (Western blot, in words): MDA-MB-231, 1, 5 and 10 µM. As for the experimental part:
The ability of the 2-oxo-3-cyano pyridines 5c and 5e to cause an inhibition of survivin was evaluated by the use of Western blotting analysis in MDA-MB-231cells treated with different concentrations of both compounds (1, 5, and 10 µM). […] Furthermore, to test the effect of these compounds on some other IAP family proteins, the Western plot of Livin, XIAP, and C-IAP1 proteins was performed (Figure 6). […] The Supplementary Material Figures S40 and S41 contain western blotting analysis for 5c and 5e.
MDA-MB-231 cancer cells were incubated with 5c and 5e at different concentrations (1, 5, and 10 µM) for 48 h. Afterwards, the medium was detached, and the cells were washed using PBS (10 mmol/L, pH 7.4). Then, the cells were incubated on cold lysis buffer (50 mmol/L Tris–HCl, 150 mmol/L NaCl, 1 mmol/L EGTA, 1 mmol/L EDTA, 20 mmol/L NaF, […], 0.5% NP40, 1% Triton X-100, 1 mmol/L PMSF (pH 7.4)) and a freshly added cocktail inhibitor (Inhibitor Cocktail Set III, Calbiochem, La Jolla, CA) above ice for 30 min. Then, MDA-MB-231 cells were collected and centrifuged at 12,000× g for 15 min.
XIAp, Survivin, Livin, and cIAP1anti-mouse, anti-rabbit secondary antibodies, and GAPDH were purchased from Sigma-Aldrich, whereas the gel was obtained from BioRad. Polyacrylamide gels were moved to a nitrocellulose membrane in order to block in buffer (7% nonfat dry milk/1% Tween 20; in 20 mmol/L TBS (pH 7.6)) for 1 h and incubated for 2 h at room temperature with the suitable primary antibody in blocking buffer or overnight at 4 °C; then, they were incubated with secondary antibody HRP conjugate. Finally, the blots analysis was done using the imaging system.

Another data set addresses T1, survivin (Homo sapiens, UniProt O15392).
T1 construct: Western blotting analysis in MDA-MB-231cells treated with different concentrations of both compounds; endogenous in cells; host or cells: MDA-MB-231
Put plainly: Rescue experiment with proteasome inhibitor MG132 (Western blot of survivin). It is filed as cell-based. The conditions noted are these: MDA-MB cells pre-treated with proteasome inhibitor MG132. As for the experimental part: Degradation of the dimeric proteins can result from the interaction with the hydrophobic dimerization interface, which leads to conformational changes. This degradation can be mediated by the proteasome enzyme. Since 5c and 5e were expected to inhibit survivin dimerization as shown in the docking study, we assumed that they may induce the degradation of survivin via the proteasome. Thus, a rescue experiment was performed by pre-treating MDA-MB-cells with the proteasome inhibitor MG132 prior to 5c/5e treatment. […] Thus, 5c and 5e likely promote survivin degradation through the proteasome.

Data set [1] has as its system prostate carcinoma (PC-3) cells. Put plainly: SRB cytotoxicity assay, PC-3. It is filed as cell-based, human. To be noted: for IC50: Homo sapiens, PC-3, SRB assay, 72 h, mean ± SD of three experiments; for Selectivity Index PC-3: SI = IC50 on WI-38/IC50 on PC-3. As for the experimental part:
In the present work, sulforhodamine B (SRB) colorimetric assay was done to evaluate the cytotoxic activity of the synthesized 3-cyano pyridines 4a–4e, 5a–5e, and 6a–6e on three human cancer cell lines: prostate carcinoma (PC-3), breast cancer (MDA-MB-231) and hepatocellular carcinoma (HepG2) cell lines. 5-FU was used as a standard drug for comparison.
Human cancer cells were obtained from Nawah Scientific Inc. (Mokatam, Cairo, Egypt). Cells were maintained in DMEM media containing […] streptomycin, 100 units/mL penicillin, and 10% heat-inactivated fetal bovine serum in humified, 5% (v/v) CO2 atmosphere at 37 °C.
Cell viability was estimated using the SRB assay. Aliquots of 100 µL cell suspension (5 × 10^3 cells) in 96-well plates were incubated in complete media for 24 h. Cells were treated with a second aliquot of 100 µL media containing various concentrations of the tested compounds (0.01, 0.1, 1, 10, and 100 μM). After 72 h, cells were fixed by replacing media with 15 µL of 10% TCA and then incubated at 4 °C for 1 h. After that, TCA solution was removed, and the cells were washed 5 times with distilled water. Aliquots of 70 µL SRB solution (0.4% w/v) were added and incubated in a dark place at room temperature for 10 min. Plates were washed 3 times with 1% acetic acid and allowed to air dry overnight. Then, 150 µL of TRIS (10 mM) was added to dissolve protein-bound SRB stain. The absorbance was measured at 540 nm using BMG LABTECH®-FLUO star Omega microplate reader (Ortenberg, Germany).

T1 sequence (O15392 whole entry): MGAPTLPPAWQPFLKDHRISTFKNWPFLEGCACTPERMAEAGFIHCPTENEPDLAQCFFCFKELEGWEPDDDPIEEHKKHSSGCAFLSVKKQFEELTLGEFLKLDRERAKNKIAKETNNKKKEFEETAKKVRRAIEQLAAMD

In general, IC50 refers to the point on the concentration scale where inhibition reaches its midpoint. A lower IC50 goes with greater potency. Consider `N#Cc1c(-c2ccc(Cl)cc2)cc(-c2ccc(OCc3ccc(F)cc3)cc2)[nH]c1=O` [Compound 5c, 4-(4-Chlorophenyl)-6-(4-((4-fluorobenzyl)oxy)phenyl)-2-oxo-1,2-dihydropyridine-3-carbonitrile], for which, in the data set on MDA-MB-231 cells, the “increase in the number of cells in the G2/M phase compared to control” value amounted to 4.92 fold, the “%Pre-G1” value is reported as 16.32%, the “%G2-M” value came out at 21.57% and the “%S” value came out at 33.16%. Also, in the data set on MDA-MB-231 cells, the “%G0-G1” value is given as 45.27%. Besides, in the data set with C-IAP1 (MDA-MB-231, 1µM), the CIAP1 band % is 39.7%, the “CIAP1 band Area” value turned out to be 2565, the “CIAP1 band Height” value is recorded as 192 and the “CIAP1 band Width” value is 24. In addition, in the data set on C-IAP1 (MDA-MB-231, 5µM), the CIAP1 band % came out at 34.1%, the “CIAP1 band Area” value was found to be 1941, the “CIAP1 band Height” value worked out at 187 and the “CIAP1 band Width” value is 22. In the data set on C-IAP1 (MDA-MB-231, 10µM), the CIAP1 band % turned out to be 31.9%, the “CIAP1 band Area” value amounted to 1884, the “CIAP1 band Height” value worked out at 186 and the “CIAP1 band Width” value is reported as 18. Besides, the “C-IAP1 protein level (Western blot, in words)” value in the data set on C-IAP1 is reported as “decreased the levels of these proteins”. Further, the “effect of MG132 pre-treatment on compound-induced survivin loss” value at survivin is listed as “MG132 reversed 5c/5e-induced survivin loss”. Also, in data set [1], 14.4 ± 0.38 µM corresponded to half-maximal inhibition (IC50) and the “Selectivity Index PC-3” value is given as 6.33. Also, in data set [1] (cell line not specified (PC-3, MDA-MB-231, HepG2 tested)), the “cytotoxicity relative to 5-FU” value was “nearly half that of 5-FU”.

`COc1ccc(-c2cc(-c3ccc(OCc4ccc(F)cc4)cc3)[nH]c(=O)c2C#N)cc1` [Compound 5e, 6-(4-((4-Fluorobenzyl)oxy)phenyl)-4-(4-methoxyphenyl)-2-oxo-1,2-dihydropyridine-3-carbonitrile]: in the data set with MDA-MB-231 cells, the “increase in the number of cells in the G2/M phase compared to control” value is 5.74 fold, the “%Pre-G1” value was 19.47%, the “%G2-M” value is recorded as 25.16% and the “%S” value is recorded as 32.48%. The “%G0-G1” value in the data set with MDA-MB-231 cells was determined as 42.36%. For the same compound, in the data set on C-IAP1 (MDA-MB-231, 1µM), the CIAP1 band % is 18.2%, the “CIAP1 band Area” value is 987, the “CIAP1 band Height” value is 98 and the “CIAP1 band Width” value is given as 24. For the same compound, in the data set on C-IAP1 (MDA-MB-231, 5µM), the CIAP1 band % was found to be 12.6%, the “CIAP1 band Area” value is given as 766, the “CIAP1 band Height” value was determined as 86 and the “CIAP1 band Width” value amounted to 23. Moreover, in the data set with C-IAP1 (MDA-MB-231, 10µM), the CIAP1 band % was determined as 10.2%, the “CIAP1 band Area” value is listed as 570, the “CIAP1 band Height” value was found to be 79 and the “CIAP1 band Width” value came to 22. Further, the “C-IAP1 protein level (Western blot, in words)” value in the data set with C-IAP1 is “decreased the levels of these proteins”. At survivin, the “effect of MG132 pre-treatment on compound-induced survivin loss” value is “MG132 reversed 5c/5e-induced survivin loss”. In data set [1], the IC50 is 4.46 ± 0.51 µM and the “Selectivity Index PC-3” value is on record as 22.99. In data set [1] (cytotoxicity compared with 5-FU), the “activity relative to 5-FU, PC-3” value was “twice the activity of 5-FU”.
